# Literature values in patent publication US20250387497A1, “MULTIVALENT MULTISPECIFIC CONJUGATES AND RELATED COMPOSITIONS AND METHODS OF USE” (Purdue Research Foundation, priority 2022, published 2025).
# How the values were obtained:
# [1] = biological target: Her2 (Homo sapiens, UniProt P04626); conditions: read-out: binding affinity for Her2
# [2] = biological target: EGFR (Homo sapiens, UniProt P00533); conditions: read-out: binding affinity for EGFR
Kd [1] [µM],Kd [2] [µM],Sequence
0.3,–,FCGDGFYACYMDV [H]
–,459,YHWYGYTPQNVI [E]
